Data on 18 compounds can be found in patent publication US20100016319A1, “ARYLMETHYLENE UREA DERIVATIVE AND USE THEREOF” (TORAY INDUSTRIES, INC. a corporation of Japan, priority 2005, published 2010).

One data set deals with DSS-induced colitis. As to the kind of experiment: Dextran sulfate sodium (DSS)-induced colitis model of mice, rectal bleeding score. The format is in vivo, BALB/c mice. As to conditions: 30 mg/kg orally every day from Day 27 to Day 31; for amelioration of symptoms / improvement in the rectal bleeding score (in words): Day 32; for rectal bleeding score on Day 32 (0: occult blood-negative, 2: occult blood-positive, 4: apparent bleeding): female BALB/c mice, 3 w/v % DSS. The method, then:
(§1) Female BALB/c mice (Japan SLC) of 7 to 9 weeks old were allowed to freely drink 3 w/v % dextran sulfate sodium (DSS) for 5 to 7 days, and then to freely drink sterilized distilled water for 5 days. This procedure was repeated 3 times to induce colitis. The uninduced (background) group was allowed to freely drink sterilized distilled water. The compound described in Example 2 was orally administered to the mice at a dose of 30 mg/kg every day from Day 27 to Day 31 counted from the start of the test, and rectal bleeding was scored (0: occult blood-negative, 2: occult blood-positive, 4: apparent bleeding) by using the method described by Murthy et al (see, for example, Dig Dis Sci., 38, 1722 (1993)).
On the other hand, the same test as in Example 452 was repeated except that 1-(4-(pyridin-4-yloxy)benzyl)-3-(3-t-butylisoxazol-5-yl)urea (the structural formula thereof is shown below) which is a compound included in WO 04/037789 was used in place of the compound of Example 2. The score on Day 32 (the last day of the test) of the colitis-uninduced group was 0, while the score of the colitis-induced group rose to 1.2±0.2.
as §1, with “Example 10” for “Example 2”
On the other hand, the same test as in Example 453 was repeated except that 1-(4-(pyridin-4-yloxy)benzyl)-3-([…])urea (the structural formula thereof is shown below) which is a compound included in WO 04/037789 was used in place of the compound of Example 10. The score on Day 32 (the last day of the test) of the colitis-uninduced group was 0, while the score of the colitis-induced group rose to 1.2±0.2.

In data set [1] the test system is TNFα production in human whole blood. As to the kind of experiment: Inhibitory activity on LPS-induced TNFα production in human whole blood. The format is cell-based. The conditions noted are these: LPS stimulation, 37° C., 5 hours. The method, then:
Inhibitory activities of the arylmethylene urea derivatives according to the present invention to the production of TNFα induced by stimulation with a lipopolysaccharide (LPS) were investigated using human whole blood.
After mixing each of the compounds of the present invention with human blood in a 96-well flat-bottom plate, the lipopolysaccharide (LPS) was added and the mixture was allowed to react at 37° C. for 5 hours. After the reaction, the resulting mixture was centrifuged at room temperature for 15 minutes, and supernatant of the resultant was recovered. For the quantification of TNFα in the supernatant, human cytokine kit (CIS biointernational) was used.

In data set [2] the test system is rhythmic bladder contractions. The data set can be described thus: Rhythmic bladder contractions model in anesthetized rats. In kind it is in vivo, SD rats. As to conditions: i.v., 10 mg/kg; 10 minutes before and after administration; FIG. 2. The text has this:
Using anesthetized rat rhythmic bladder contractions model, the inhibitory effect of the arylmethylene urea derivatives of the present invention on the detrusor hyperreflexia was investigated.
Female SD rats were anesthetized with an intraperitoneal injection of urethane (1.0 g/kg). A polyethylene tube was inserted from external urethral orifice into the bladder and the tube was fixed by ligating. The other end of the tube was equipped with a three-necked cock, and one of the necks thereof was connected to a pressure transducer for the measurement of intravesical pressure and the other neck was connected to a syringe for the infusion of physiological saline into the bladder. Thirty minutes after the surgery was completed, physiological saline in appropriate volume was infused via the tube in order to induce rhythmic bladder contractions. After stable rhythmic bladder contractions were obtained, a solution of each test compound or the solvent thereof was administered from a caudal vein in a volume of 0.5 mL/kg, and the effect on the frequency of bladder contractions was investigated. As the test compounds, the compounds of Examples 2 and 9 were used.
In each of the figures, the ordinate indicates the number of rhythmic bladder contractions for 10 minutes before and after administration of the compound.

Molecules are shown by their SMILES.

As for `CC(C)(C)c1cc(NC(=O)NCc2ccc(Oc3ccncc3)cc2)on1` [1-(4-(pyridin-4-yloxy)benzyl)-3-(3-t-butylisoxazol-5-yl)urea, reference compound], in the data set on DSS-induced colitis, the “amelioration of symptoms / improvement in the rectal bleeding score (in words)” value (“amelioration of symptoms / improvement” for short) is “improvement in the score was not observed” and the “rectal bleeding score on Day 32 (0: occult blood-negative, 2: occult blood-positive, 4: apparent bleeding)” value is on record as 1.1±0.2. One may read the melting point as the temperature, or range, at which the solid turns liquid. What is called IC50 is the concentration needed to halve the response being measured. The low end stands for higher potency, the high end for lower potency. `Cc1ccc(-n2nc(C(C)(C)C)cc2NC(=O)NCc2ccccc2Oc2cc(N3CCOCC3)ncn2)cc1` [Example 5, 1-(2-(6-morpholinopyrimidin-4-yloxy)benzyl)-3-(3-t-butyl-1-p-tolyl-1H-pyrazol-5-yl)urea] yielded a melting point of 128.5 °C. In addition, the concentration for half-maximal inhibition (IC50) in data set [1] turned out to be 0.843 µM. In the case of `Cc1ccc(-n2nc(C(C)(C)C)cc2NC(=O)NCc2ccccc2Oc2ccnc(NCCCN3CCCC3=O)n2)cc1` [Example 6, 1-(2-(2-(3-(2-oxo-pyrrolidin-1-yl)propylamino)pyrimidin-4-yloxy)benzyl)-3-(3-t-butyl-1-p-tolyl-1H-pyrazol-5-yl)urea], the IC50 in data set [1] is 0.119 µM. Compound `Cc1ccc(-n2nc(C(C)(C)C)cc2NC(=O)NCc2ccccc2Oc2ccnc(N3CCN(C)CC3)n2)cc1` [Example 7, 1-(2-(2-(4-methylpiperazin-1-yl)pyrimidin-4-yloxy)benzyl)-3-(3-t-butyl-1-p-tolyl-1H-pyrazol-5-yl)urea] displayed a melting point of 149.5 °C. Moreover, the IC50 in data set [1] turned out to be 0.296 µM. Turning to `Cc1ccc(-n2nc(C(C)(C)C)cc2NC(=O)NCc2cc(F)ccc2Oc2ccnc(N3CCOCC3)n2)cc1` [Example 9, 1-(2-(2-morpholinopyrimidin-4-yloxy)-5-fluorobenzyl)-3-(3-t-butyl-1-p-tolyl-1H-pyrazol-5-yl)urea], the “effect on the number of rhythmic bladder contractions” value in data set [2] is reported as “inhibited the rhythmic bladder contractions statistically significantly”. In addition, in data set [1], the IC50 was determined as 0.231 µM. Take `CC(=O)N1CCN(c2nccc(Oc3ccccc3CNC(=O)Nc3cc(C(C)(C)C)nn3-c3ccc(C)cc3)n2)CC1` [Example 10, 1-(2-(2-(4-acetylpiperazin-1-yl)pyrimidin-4-yloxy)benzyl)-3-(3-t-butyl-1-p-tolyl-1H-pyrazol-5-yl)urea]: in the data set with DSS-induced colitis, the “amelioration of symptoms / improvement” value is listed as “marked amelioration of symptoms was observed” and the “rectal bleeding score on Day 32 (0: occult blood-negative, 2: occult blood-positive, 4: apparent bleeding)” value turned out to be 0.6±0.3. This compound also came in with an IC50 in data set [1] of 1.04 µM. `Cc1ccc(-n2nc(C(C)(C)C)cc2NC(=O)NCc2ccccc2Oc2ccnc(NCCCN(C)C)n2)cc1` [Example 11, 1-(2-(2-(3-(dimethylamino)propylamino)pyrimidin-4-yloxy)benzyl)-3-(3-t-butyl-1-p-tolyl-1H-pyrazol-5-yl)urea]: the midpoint of inhibition in data set [1], the IC50, lay at 0.249 µM.

In the case of `COCCN1CCN(c2nccc(Oc3ccccc3CNC(=O)Nc3cc(C(C)(C)C)nn3-c3ccc(C)cc3)n2)CC1` [Example 12, 1-(2-(2-(4-(2-methoxyethyl)piperazin-1-yl)pyrimidin-4-yloxy)benzyl)-3-(3-t-butyl-1-p-tolyl-1H-pyrazol-5-yl)urea], in data set [1], the half-maximal inhibitory concentration (IC50) is 0.268 µM. `Cc1ccc(-n2nc(C(C)(C)C)cc2NC(=O)NCc2ccccc2Oc2ccnc(N3CCCC(C(N)=O)C3)n2)cc1` (stereo not shown) [Example 13, 1-(4-(2-(((((3-t-butyl-1-p-tolyl-1H-pyrazol-5-yl)amino)carbonyl)amino)methyl)phenoxy)pyrimidin-2-yl)-piperidin-3-carboxylic amide]: inhibition in data set [1] was half-maximal at 0.496 µM (IC50). Same read-out and setting: as for `Cc1ccc(-n2nc(C(C)(C)C)cc2NC(=O)NCc2ccccc2Oc2ccnc(N3CCC(C(N)=O)CC3)n2)cc1` [Example 14, 1-(4-(2-(((((3-t-butyl-1-p-tolyl-1H-pyrazol-5-yl)amino)carbonyl)amino)methyl)phenoxy)pyrimidin-2-yl)-piperidin-4-carboxylic amide], the figure is 0.458 µM; as for `CCN(CC)CCCNc1nccc(Oc2ccccc2CNC(=O)Nc2cc(C(C)(C)C)nn2-c2ccc(C)cc2)n1` [Example 18, 1-(2-(2-(3-(diethylamino)propylamino)pyrimidin-4-yloxy)benzyl)-3-(3-t-butyl-1-p-tolyl-1H-pyrazol-5-yl)urea], 0.311 µM; as for `Cc1ccc(-n2nc(C(C)(C)C)cc2NC(=O)NCc2ccccc2Oc2ccnc(NCCC3CCCN3C)n2)cc1` (stereo not shown) [Example 20, 1-(2-(2-(2-(1-methylpyrrolidin-2-yl)ethylamino)pyrimidin-4-yloxy)benzyl)-3-(3-t-butyl-1-p-tolyl-1H-pyrazol-5-yl)urea], 0.343 µM. In data set [1], `Cc1ccc(-n2nc(CC(C)(C)C)cc2NC(=O)NCc2ccccc2Oc2ccnc(N3CCOCC3)n2)cc1` [Example 28, 1-(2-(2-morpholinopyrimidin-4-yloxy)benzyl)-3-(3-neopentyl-1-p-tolyl-1H-pyrazol-5-yl)urea] showed a half-inhibitory concentration (IC50) of 0.513 µM. With `COc1cc(-n2nc(C(C)(C)C)cc2NC(=O)NCc2ccccc2Oc2ccnc(N3CCOCC3)n2)ccc1C` [Example 56, 1-(2-(2-morpholinopyrimidin-4-yloxy)benzyl)-3-(3-t-butyl-1-(3-methoxy-4-methylphenyl)-1H-pyrazol-5-yl)urea], in data set [1], half-maximal inhibition (IC50) was put at 0.485 µM. In turn, `Cc1ccc(-n2nc(C(C)(C)C)cc2NC(=O)NCc2ccccc2Oc2cc(N3CCCC(C(N)=O)C3)ncn2)cc1` (stereo not shown) [Example 82, 1-(6-(2-(3-(5-t-butyl-2-p-tolyl-2H-pyrazol-3-yl)-ureidomethyl)phenoxy)pyrimidin-4-yl)piperidin-3-carboxylic amide] had an IC50 in data set [1] of 0.354 µM. For the compound `Cc1ccc(-n2nc(C(C)(C)C)cc2NC(=O)NCc2cc(F)cc(C)c2Oc2ccnc(Cl)n2)cc1` [Example 85, 1-(2-(2-chloropyrimidin-4-yloxy)-3-methyl-5-fluorobenzyl)-3-(3-t-butyl-1-p-tolyl-1H-pyrazol-5-yl)urea], in data set [1], the IC50 is 0.422 µM. On to `Cc1ccc(-n2nc(C(C)(C)C)cc2NC(=O)NCc2ccccc2Oc2cc(C)nc(N3CCOCC3)n2)cc1` [Example 98, 1-(2-(6-methyl-2-morpholinopyrimidin-4-yloxy)benzyl)-3-(3-t-butyl-1-p-tolyl-1H-pyrazol-5-yl)urea], for which, in data set [1], the half-maximal inhibitory concentration (IC50) was determined as 0.298 µM. As to `CC(C)(C)c1cc(NC(=O)NCc2ccc(Oc3ccncc3)cc2)no1` [reference compound], in the data set with DSS-induced colitis, the “amelioration of symptoms / improvement” value is on record as “improvement in the score was not observed” and the “rectal bleeding score on Day 32 (0: occult blood-negative, 2: occult blood-positive, 4: apparent bleeding)” value is 1.3±0.3.
